Laboratory results published in ChEMBL document CHEMBL3885861, “Open TG-GATES”.

Species on record: Rattus norvegicus
Assay: Open TG-GATES - Regimen: Daily Repeat
Type: toxicity, organism-based, Sprague-Dawley
Parameters: regimen Daily Repeat, gender Male, age 6 weeks
Conditions: in vivo, po, route gavage; for APTT / Bas / Eos / Fbg / Hb / Ht / Lym / MCH / MCHC / MCV / Mono / Neu / PT / Plat / RBC / Ret / WBC: tissue Blood; for KIDNEY_L / KIDNEY_R / KIDNEY_TOTAL: tissue Kidney; for LIVER: tissue Liver; for A/G / ALP / ALT / AST / BUN / CRE / Ca / Cl / DBIL / GLC / IP / K / LDH / Na / PL / RALB / TBIL / TC / TG / TP / gamma-GTP: tissue Plasma
[1] = 300 mg/kg, 72 h, dose level Middle, time 3 day
[2] = 300 mg/kg, […], dose level Middle, time 7 day
[3] = 300 mg/kg, […], dose level Middle, time 14 day
[4] = 300 mg/kg, […], dose level Middle, time 28 day
[5] = 1000 mg/kg, 72 h, dose level High, time 3 day
[6] = 1000 mg/kg, […], dose level High, time 7 day
[7] = 1000 mg/kg, […], dose level High, time 14 day
[8] = 1000 mg/kg, […], dose level High, time 28 day

CN(C)[C@@H]1C(O)=C(C(N)=O)C(=O)[C@@]2(O)C(O)=C3C(=O)c4c(O)cccc4[C@@](C)(O)[C@H]3C[C@@H]12 [TETRACYCLINE]
TERMINAL_BW [1]: 189.9 g
APTT [1]: 16.3 s
Bas [1]: 0%
Eos [1]: 0.6%
Fbg [1]: 239.2 mg/dL
Hb [1]: 13.6 g/dL
Ht [1]: 40.7%
Lym [1]: 87.4%
MCH [1]: 21.9 pg
MCHC [1]: 33.4%
MCV [1]: 65.7 fL
Mono [1]: 5.6%
Neu [1]: 6%
PT [1]: 12.3 s
Plat [1]: 99.5 x10_4/uL
RBC [1]: 620.2 x10_4/ul
Ret [1]: 5.8%
WBC [1]: 89.4 x10_2/uL
KIDNEY_L [1]: 0.9 g
KIDNEY_R [1]: 0.9 g
KIDNEY_TOTAL [1]: 1.8 g
LIVER [1]: 8.8 g
A/G [1]: 1.9
ALP [1]: 1035.4 IU/L
ALT [1]: 35.6 IU/L
AST [1]: 66.8 IU/L
BUN [1]: 16.2 mg/dL
CRE [1]: 0.6 mg/dL
Ca [1]: 10.9 mg/dL
Cl [1]: 107.2 meq/L
DBIL [1]: 0.01 mg/dL
GLC [1]: 180.6 mg/dL
IP [1]: 9.8 mg/dL
K [1]: 4.8 meq/L
LDH [1]: 122.6 IU/L
Na [1]: 141 meq/L
PL [1]: 147.2 mg/dL
RALB [1]: 3.8 g/dL
TBIL [1]: 0.3 mg/dL
TC [1]: 93.6 mg/dL
TG [1]: 42.6 mg/dL
TP [1]: 5.8 g/dL
gamma-GTP [1]: 1.6 IU/L
TERMINAL_BW [2]: 227.9 g
TERMINAL_BW [3]: 275.6 g
TERMINAL_BW [4]: 341 g
APTT [2]: 17.9 s
Bas [2]: 0%
Eos [2]: 1%
Fbg [2]: 238.5 mg/dL
Hb [2]: 13.9 g/dL
Ht [2]: 41.5%
Lym [2]: 85%
MCH [2]: 21 pg
MCHC [2]: 33.4%
MCV [2]: 62.9 fL
Mono [2]: 7%
Neu [2]: 7.2%
PT [2]: 12.1 s
Plat [2]: 102 x10_4/uL
RBC [2]: 660.2 x10_4/ul
Ret [2]: 7.2%
WBC [2]: 135.8 x10_2/uL
APTT [3]: 16.7 s
Bas [3]: 0%
Eos [3]: 0.6%
Fbg [3]: 224 mg/dL
Hb [3]: 14 g/dL
Ht [3]: 42.2%
Lym [3]: 88.8%
MCH [3]: 20.3 pg
MCHC [3]: 33.3%
MCV [3]: 60.8 fL
Mono [3]: 4.8%
Neu [3]: 5.8%
PT [3]: 11.9 s
Plat [3]: 101.9 x10_4/uL
RBC [3]: 694 x10_4/ul
Ret [3]: 5.3%
WBC [3]: 135.4 x10_2/uL
APTT [4]: 16.5 s
Bas [4]: 0%
Eos [4]: 1%
Fbg [4]: 222.6 mg/dL
Hb [4]: 14.6 g/dL
Ht [4]: 43.4%
Lym [4]: 89.4%
MCH [4]: 19 pg
MCHC [4]: 33.6%
MCV [4]: 56.6 fL
Mono [4]: 3%
Neu [4]: 7%
PT [4]: 11.8 s
Plat [4]: 94.9 x10_4/uL
RBC [4]: 766.8 x10_4/ul
Ret [4]: 2.7%
WBC [4]: 147 x10_2/uL
KIDNEY_L [2]: 1 g
KIDNEY_R [2]: 1 g
KIDNEY_TOTAL [2]: 2 g
KIDNEY_L [3]: 1.1 g
KIDNEY_R [3]: 1.1 g
KIDNEY_TOTAL [3]: 2.2 g
KIDNEY_L [4]: 1.3 g
KIDNEY_R [4]: 1.2 g
KIDNEY_TOTAL [4]: 2.5 g
LIVER [2]: 10.8 g
LIVER [3]: 11.8 g
LIVER [4]: 13.2 g
A/G [2]: 2
ALP [2]: 1076.4 IU/L
ALT [2]: 38.2 IU/L
AST [2]: 69 IU/L
BUN [2]: 20.2 mg/dL
CRE [2]: 0.6 mg/dL
Ca [2]: 11.2 mg/dL
Cl [2]: 106.6 meq/L
DBIL [2]: 0.004 mg/dL
GLC [2]: 176 mg/dL
IP [2]: 9.6 mg/dL
K [2]: 5.5 meq/L
LDH [2]: 142 IU/L
Na [2]: 140.4 meq/L
PL [2]: 157.6 mg/dL
RALB [2]: 3.9 g/dL
TBIL [2]: 0.3 mg/dL
TC [2]: 82.6 mg/dL
TG [2]: 87.6 mg/dL
TP [2]: 5.9 g/dL
gamma-GTP [2]: 1 IU/L
A/G [3]: 2
ALP [3]: 1009.2 IU/L
ALT [3]: 36.8 IU/L
AST [3]: 61.6 IU/L
BUN [3]: 20.8 mg/dL
CRE [3]: 0.5 mg/dL
Ca [3]: 11.1 mg/dL
Cl [3]: 103.8 meq/L
DBIL [3]: 0.006 mg/dL
GLC [3]: 178.2 mg/dL
IP [3]: 8.6 mg/dL
K [3]: 4.8 meq/L
LDH [3]: 88.6 IU/L
Na [3]: 142.4 meq/L
PL [3]: 157 mg/dL
RALB [3]: 3.9 g/dL
TBIL [3]: 0.3 mg/dL
TC [3]: 72.4 mg/dL
TG [3]: 111.4 mg/dL
TP [3]: 6 g/dL
gamma-GTP [3]: 1.2 IU/L
A/G [4]: 1.8
ALP [4]: 813.4 IU/L
ALT [4]: 29 IU/L
AST [4]: 62.4 IU/L
BUN [4]: 19.4 mg/dL
CRE [4]: 0.6 mg/dL
Ca [4]: 10.9 mg/dL
Cl [4]: 107 meq/L
DBIL [4]: 0.026 mg/dL
GLC [4]: 173.2 mg/dL
IP [4]: 7.4 mg/dL
K [4]: 4.2 meq/L
LDH [4]: 73.8 IU/L
Na [4]: 141 meq/L
PL [4]: 146 mg/dL
RALB [4]: 3.8 g/dL
TBIL [4]: 0.3 mg/dL
TC [4]: 75.2 mg/dL
TG [4]: 127 mg/dL
TP [4]: 6 g/dL
gamma-GTP [4]: 1 IU/L
TERMINAL_BW [5]: 196.1 g
APTT [5]: 16.3 s
Bas [5]: 0%
Eos [5]: 1.2%
Fbg [5]: 220.4 mg/dL
Hb [5]: 13.2 g/dL
Ht [5]: 39.6%
Lym [5]: 87.6%
MCH [5]: 21.2 pg
MCHC [5]: 33.2%
MCV [5]: 63.8 fL
Mono [5]: 4.6%
Neu [5]: 6.6%
PT [5]: 12.3 s
Plat [5]: 111.2 x10_4/uL
RBC [5]: 621.8 x10_4/ul
Ret [5]: 5.2%
WBC [5]: 98.6 x10_2/uL
KIDNEY_L [5]: 0.9 g
KIDNEY_R [5]: 0.9 g
KIDNEY_TOTAL [5]: 1.8 g
LIVER [5]: 8.4 g
A/G [5]: 2.2
ALP [5]: 1151 IU/L
ALT [5]: 37.8 IU/L
AST [5]: 72.2 IU/L
BUN [5]: 17.2 mg/dL
CRE [5]: 0.5 mg/dL
Ca [5]: 10.8 mg/dL
Cl [5]: 105.8 meq/L
DBIL [5]: 0.006 mg/dL
GLC [5]: 181 mg/dL
IP [5]: 9 mg/dL
K [5]: 4.6 meq/L
LDH [5]: 144.4 IU/L
Na [5]: 140.8 meq/L
PL [5]: 143.2 mg/dL
RALB [5]: 3.8 g/dL
TBIL [5]: 0.3 mg/dL
TC [5]: 85.8 mg/dL
TG [5]: 40.4 mg/dL
TP [5]: 5.5 g/dL
gamma-GTP [5]: 1.8 IU/L
TERMINAL_BW [6]: 225.1 g
TERMINAL_BW [7]: 289.3 g
TERMINAL_BW [8]: 356 g
APTT [6]: 16 s
Bas [6]: 0%
Eos [6]: 1.2%
Fbg [6]: 220.8 mg/dL
Hb [6]: 13.3 g/dL
Ht [6]: 39.5%
Lym [6]: 86.6%
MCH [6]: 20.8 pg
MCHC [6]: 33.6%
MCV [6]: 61.7 fL
Mono [6]: 5.8%
Neu [6]: 6.8%
PT [6]: 12.3 s
Plat [6]: 115 x10_4/uL
RBC [6]: 639.8 x10_4/ul
Ret [6]: 6.4%
WBC [6]: 124.1 x10_2/uL
APTT [7]: 16.2 s
Bas [7]: 0%
Eos [7]: 1%
Fbg [7]: 225.4 mg/dL
Hb [7]: 13.5 g/dL
Ht [7]: 40.9%
Lym [7]: 91.2%
MCH [7]: 20.6 pg
MCHC [7]: 33%
MCV [7]: 62.5 fL
Mono [7]: 2.6%
Neu [7]: 5.4%
PT [7]: 11.9 s
Plat [7]: 109.6 x10_4/uL
RBC [7]: 656 x10_4/ul
Ret [7]: 6.7%
WBC [7]: 146 x10_2/uL
APTT [8]: 16.6 s
Bas [8]: 0%
Eos [8]: 1%
Fbg [8]: 233.6 mg/dL
Hb [8]: 14.4 g/dL
Ht [8]: 43.2%
Lym [8]: 86.8%
MCH [8]: 19 pg
MCHC [8]: 33.4%
MCV [8]: 56.9 fL
Mono [8]: 3.6%
Neu [8]: 8.6%
PT [8]: 11.8 s
Plat [8]: 95 x10_4/uL
RBC [8]: 761.4 x10_4/ul
Ret [8]: 2.9%
WBC [8]: 154.2 x10_2/uL
KIDNEY_L [6]: 1 g
KIDNEY_R [6]: 1 g
KIDNEY_TOTAL [6]: 1.9 g
KIDNEY_L [7]: 1.1 g
KIDNEY_R [7]: 1.2 g
KIDNEY_TOTAL [7]: 2.3 g
KIDNEY_L [8]: 1.3 g
KIDNEY_R [8]: 1.2 g
KIDNEY_TOTAL [8]: 2.5 g
LIVER [6]: 9.5 g
LIVER [7]: 11.9 g
LIVER [8]: 12.2 g
A/G [6]: 2.1
ALP [6]: 1114.8 IU/L
ALT [6]: 36.6 IU/L
AST [6]: 72 IU/L
BUN [6]: 17 mg/dL
CRE [6]: 0.5 mg/dL
Ca [6]: 11.1 mg/dL
Cl [6]: 106.2 meq/L
DBIL [6]: 0.008 mg/dL
GLC [6]: 179.6 mg/dL
IP [6]: 9 mg/dL
K [6]: 5.2 meq/L
LDH [6]: 116.4 IU/L
Na [6]: 140.4 meq/L
PL [6]: 139 mg/dL
RALB [6]: 3.8 g/dL
TBIL [6]: 0.2 mg/dL
TC [6]: 74 mg/dL
TG [6]: 56.2 mg/dL
TP [6]: 5.6 g/dL
gamma-GTP [6]: 1.2 IU/L
A/G [7]: 2
ALP [7]: 1024 IU/L
ALT [7]: 33.8 IU/L
AST [7]: 64.8 IU/L
BUN [7]: 20.2 mg/dL
CRE [7]: 0.6 mg/dL
Ca [7]: 11.3 mg/dL
Cl [7]: 104 meq/L
DBIL [7]: 0.074 mg/dL
GLC [7]: 176 mg/dL
IP [7]: 9.2 mg/dL
K [7]: 4.9 meq/L
LDH [7]: 156.6 IU/L
Na [7]: 143 meq/L
PL [7]: 168.8 mg/dL
RALB [7]: 3.9 g/dL
TBIL [7]: 0.3 mg/dL
TC [7]: 89.2 mg/dL
TG [7]: 84.2 mg/dL
TP [7]: 5.9 g/dL
gamma-GTP [7]: 2 IU/L
A/G [8]: 1.8
ALP [8]: 773.6 IU/L
ALT [8]: 35.2 IU/L
AST [8]: 71.8 IU/L
BUN [8]: 19.2 mg/dL
CRE [8]: 0.6 mg/dL
Ca [8]: 11.1 mg/dL
Cl [8]: 106 meq/L
DBIL [8]: 0.024 mg/dL
GLC [8]: 168.8 mg/dL
IP [8]: 7.6 mg/dL
K [8]: 4.4 meq/L
LDH [8]: 143.6 IU/L
Na [8]: 142 meq/L
PL [8]: 140.4 mg/dL
RALB [8]: 3.6 g/dL
TBIL [8]: 0.3 mg/dL
TC [8]: 77.6 mg/dL
TG [8]: 73.8 mg/dL
TP [8]: 5.7 g/dL
gamma-GTP [8]: 1.6 IU/L
